Where a name gives a salt, the structure may show the parent alone.

The experiment concerns the target T1, full length SGK1 (Homo sapiens, UniProt O00141).
T1 construct: 125 μM full length SGK1 (Life Technologies Part #PR7358A); purchased Life Technologies PR7358A
T1 sequence (O00141 1-431): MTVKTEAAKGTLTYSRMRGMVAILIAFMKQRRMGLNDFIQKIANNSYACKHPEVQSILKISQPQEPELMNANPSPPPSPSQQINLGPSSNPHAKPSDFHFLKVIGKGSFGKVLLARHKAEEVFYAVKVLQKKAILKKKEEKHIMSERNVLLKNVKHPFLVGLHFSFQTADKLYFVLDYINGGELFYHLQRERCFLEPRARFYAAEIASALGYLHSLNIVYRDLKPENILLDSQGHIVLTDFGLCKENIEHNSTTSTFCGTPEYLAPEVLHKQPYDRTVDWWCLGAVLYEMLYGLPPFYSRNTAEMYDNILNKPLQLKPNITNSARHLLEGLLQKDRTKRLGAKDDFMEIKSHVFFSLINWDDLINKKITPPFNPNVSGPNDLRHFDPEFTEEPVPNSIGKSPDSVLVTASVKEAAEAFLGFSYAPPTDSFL
Kind of experiment: SGK1 inhibition Assay A (Caliper LabChip electrophoretic separation of fluorescent peptide substrate and phosphorylated product). Type of experiment: biochemical. To be noted: Assay A; 20 μM ATP, 40 min incubation; read-out: SGK1 IC50.
Consider `Cc1cc(C(=O)N[C@@H]2CCCN(c3cc(C4=CCN(S(C)(=O)=O)C4)n4ncnc(N)c34)C2)ccn1` [Example 116, (R)—N-(1-(4-amino-7-(1-(methylsulfonyl)-2,5-dihydro-1H-pyrrol-3-yl)pyrrolo[2,1-f][1,2,4]triazin-5-yl)piperidin-3-yl)-2-methylisonicotinamide], for which the IC50 amounted to 12 nM.

Regarding `CC(=O)N1CC=C(c2cc(N3CCC[C@@H](NC(=O)c4cccnc4OCCN4CCN(C)CC4)C3)c3c(N)ncnn23)C1` [Example 722, (R)-N-(1-(7-(1-acetyl-2,5-dihydro-1H-pyrrol-3-yl)-4-aminopyrrolo[2,1-f][1,2,4]triazin-5-yl)piperidin-3-yl)-2-(2-(4-methylpiperazin-1-yl)ethoxy)nicotinamide], the IC50 turned out to be 114 nM.

On to `N#Cc1ncc(-c2cc(N3CCC[C@@H](NC(=O)c4ccc(Cl)s4)C3)c3c(N)ncnn23)cc1F` [Example 530, (R)-N-(1-(4-amino-7-(6-cyano-5-fluoropyridin-3-yl)pyrrolo[2,1-f][1,2,4]triazin-5-yl)piperidin-3-yl)-5-chlorothiophene-2-carboxamide], for which the IC50 was found to be 11 nM.

Consider `CN1CCN(c2cccc(C(=O)N[C@@H]3CCCN(c4cc(-c5ccc(C#N)nc5)n5ncnc(N)c45)C3)n2)CC1` [Example 785, (R)—N-(1-(4-amino-7-(6-cyanopyridin-3-yl)pyrrolo[2,1-f][1,2,4]triazin-5-yl)piperidin-3-yl)-6-(4-methylpiperazin-1-yl)picolinamide], for which the IC50 came to 7 nM.

In the case of `CC(=O)N1CC=C(c2cc(N3CCC[C@@H](NC(=O)c4ccc(-c5ccncc5)cc4)C3)c3c(N)ncnn23)C1` [Example 462, (R)-N-(1-(7-(1-acetyl-2,5-dihydro-1H-pyrrol-3-yl)-4-aminopyrrolo[2,1-f][1,2,4]triazin-5-yl)piperidin-3-yl)-4-(pyridin-4-yl)benzamide], the IC50 came out at 26 nM.

Regarding `Nc1ncnn2c(-c3ccnc(C(F)F)c3)cc(N3CCC[C@@H](NC(=O)c4sc(Cl)cc4OC4CCNC4)C3)c12` (stereo partly drawn) [Example 586, N-((R)-1-(4-amino-7-(2-(difluoromethyl)pyridin-4-yl)pyrrolo[2,1-f][1,2,4]triazin-5-yl)piperidin-3-yl)-5-chloro-3-(pyrrolidin-3-yloxy)thiophene-2-carboxamide], the IC50 was determined as 4 nM.

`CC(=O)N1CC=C(c2cc(N3CCC[C@@H](NC(=O)c4sc(C)cc4N4CCOCC4)C3)c3c(N)ncnn23)C1` [Example 268, (R)—N-(1-(7-(1-acetyl-2,5-dihydro-1H-pyrrol-3-yl)-4-aminopyrrolo[2,1-f][1,2,4]triazin-5-yl)piperidin-3-yl)-5-methyl-3-morpholinothiophene-2-carboxamide]: the IC50 was determined as 38 nM.

Take `CC(=O)N1CC=C(c2cc(N3CCC[C@@H](NC(=O)c4cccc(NCCN(C)C)n4)C3)c3c(N)ncnn23)C1` [Example 761, (R)-N-(1-(7-(1-acetyl-2,5-dihydro-1H-pyrrol-3-yl)-4-aminopyrrolo[2,1-f][1,2,4]triazin-5-yl)piperidin-3-yl)-6-((2-(dimethylamino)ethyl)amino)picolinamide]: the IC50 is 7 nM.

For the compound `CC1CC1C(=O)N1CC=C(c2cc(N3CCC[C@@H](NC(=O)c4sc(Cl)cc4OCCN4CCOCC4)C3)c3c(N)ncnn23)C1` (stereo partly drawn) [Example 266, N-((3R)-1-(4-amino-7-(1-(2-methylcyclopropane-1-carbonyl)-2,5-dihydro-1H-pyrrol-3-yl)pyrrolo[2,1-f][1,2,4]triazin-5-yl)piperidin-3-yl)-5-chloro-3-(2-morpholinoethoxy)thiopbene-2-carboxamide], the IC50 worked out at 18 nM.

Take `Nc1ncnn2c(-c3ccnc(C(F)(F)F)c3)cc(N3CCC[C@@H](NC(=O)c4sc(Cl)cc4OCCN4CCOCC4)C3)c12` [Example 267, (R)—N-(1-(4-amino-7-(2-(trifluoromethyl)pyridin-4-yl)pyrrolo[2,1-f][1,2,4]triazin-5-yl)piperidin-3-yl)-5-chloro-3-(2-morpholinoethoxy)thiophene-2-carboxamide]: the IC50 came out at 9 nM.

Regarding `Nc1ncnn2c(-c3ccnc(F)c3)cc(N3CCC[C@@H](NC(=O)c4sc(Cl)cc4OCCN4CCOCC4)C3)c12` [Example 148, (R)-N-(1-(4-amino-7-(2-fluoropyridin-4-yl)pyrrolo[2,1-f][1,2,4]triazin-5-yl)piperidin-3-yl)-5-chloro-3-(2-morpholinoethoxy) thiophene-2-carboxamide, TFA], the IC50 stood at 5 nM.

For the compound `COc1cccc(C(=O)N[C@@H]2CCCN(c3cc(-c4ccc(S(C)(=O)=O)cc4)n4ncnc(N)c34)C2)c1` [Example 22, (R)-N-(1-(4-amino-7-(4-(methylsulfonyl)phenyl)pyrrolo[2,1-f][1,2,4]triazin-5-yl)piperidin-3-yl)-3-methoxybenzamide], the IC50 was found to be 12 nM.

Take `CC(=O)N1CC=C(c2cc(N3CCC[C@@H](NC(=O)c4sc(C(F)F)cc4N4CC5(COC5)C4)C3)c3c(N)ncnn23)C1` [Example 315, (R)-N-(1-(7-(1-acetyl-2,5-dihydro-1H-pyrrol-3-yl)-4-aminopyrrolo[2,1-f][1,2,4]triazin-5-yl)piperidin-3-yl)-5-(difluoromethyl)-3-(2-oxa-6-azaspiro[3.3]heptan-6-yl)thiophene-2-carboxamide]: the IC50 was 65 nM.

With `CS(=O)(=O)c1ccc(-c2cc(N3CCC[C@@H](NC(=O)c4cc[nH]c(=O)c4)C3)c3c(N)ncnn23)cc1` [Example 43, (R)-N-(1-(4-amino-7-(4-(methylsulfonyl)phenyl)pyrrolo[2,1-f][1,2,4]triazin-5-yl)piperidin-3-yl)-2-oxo-1,2-d1Hydropyridine-4-carboxamide, TFA], the IC50 was 79 nM.

Turning to `CC(=O)N1CC=C(c2cc(N3CCC[C@@H](NC(=O)c4ccn(CC(F)F)n4)C3)c3c(N)ncnn23)C1` [Example 743], the IC50 was 51 nM.

Regarding `CN1CCC(COc2cc(Cl)sc2C(=O)N[C@@H]2CCCN(c3cc(-c4cncnc4)n4ncnc(N)c34)C2)CC1` [Example 643, (R)-N-(1-(4-amino-7-(pyrimidin-5-yl)pyrrolo[2,1-f][1,2,4]triazin-5-y1)piperidin-3-y1)-5-chloro-3-((1-methylpiperidin-4-yl)methoxy)thiophene-2-carboxamide], the IC50 was 8 nM.

With `NCCOc1cc(Cl)sc1C(=O)N[C@@H]1CCCN(c2cc(-c3cncnc3)n3ncnc(N)c23)C1` [Example 327, (R)—N-(1-(4-amino-7-(pyrimidin-5-yl)pyrrolo[2,1-f][1,2,4]triazin-5-yl)piperidin-3-yl)-3-(2-aminoethoxy)-5-chlorothiophene-2-carboxamide], the IC50 is 9 nM.

As for `CN1CCC(c2cc(C(F)F)sc2C(=O)N[C@@H]2CCCN(c3cc(-c4ccc(C#N)nc4)n4ncnc(N)c34)C2)CC1` [Example 396, (R)-N-(1-(4-amino-7-(6-cyanopyridin-3-yl)pyrrolo[2,1-f][1,2,4]triazin-5-yl)piperidin-3-yl)-5-(difluoromethyl)-3-(1-methylpiperidin-4-yl)thiophene-2-carboxamide], the IC50 was 146 nM.

Turning to `Nc1ncnn2c(-c3ccnc(C(F)F)c3)cc(N3CCC[C@@H](NC(=O)c4sc(Cl)cc4OCCN4CCC(F)(F)C4)C3)c12` [Example 294, (R)-N-(1-(4-amino-7-(2-(difluoromethyl)pyridin-4-yl)pyrrolo[2,1-f][1,2,4]triazin-5-yl)piperidin-3-yl)-5-chloro-3-(2-(3,3-difluoropyrrolidin-1-yl)ethoxy)thiophene-2-carboxamide], the IC50 is 7 nM.

With `CC(=O)N1CCC(Oc2cc(C(F)F)sc2C(=O)N[C@@H]2CCCN(c3cc(C4=CCN(C(C)=O)C4)n4ncnc(N)c34)C2)CC1` [Example 412, (R)-N-(1-(7-(1-acetyl-2,5-dihydro-1H-pyrrol-3-yl)-4-aminopyrrolo[2,1-f][1,2,4]triazin-5-yl)piperidin-3-yl)-3-((1-acetylpiperidin-4-yl)oxy)-5-(difluoromethyl)thiophene-2-carboxamide], the IC50 was 50 nM.

For the compound `N#Cc1ncc(-c2cc(N3CCC[C@@H](NC(=O)c4ccc(C(F)F)s4)C3)c3c(N)ncnn23)cc1C(F)(F)F` [Example 524, (R)-N-(1-(4-amino-7-(6-cyano-5-(trifluoromethyl)pyridin-3-yl)pyrrolo[2,1-f][1,2,4]triazin-5-yl)piperidin-3-yl)-5-(difluoromethyl)thiophene-2-carboxamide], the IC50 amounted to 362 nM.

In the case of `CC(=O)N1CC=C(c2cc(N3CCC[C@@H](NC(=O)c4sc(C(F)F)cc4C4CCN(C)C4)C3)c3c(N)ncnn23)C1` (stereo partly drawn) [Example 406, N-((R)-1-(7-(1-acetyl-2,5-dihydro-1H-pyrrol-3-yl)-4-aminopyrrolo[2,1-f][1,2,4]triazin-5-yl)piperidin-3-yl)-5-(difluoromethyl)-3-(1-methylpyrrolidin-3-yl)thiophene-2-carboxamide], the IC50 was 309 nM.

Regarding `CN(C)CCOc1c(C(=O)N[C@@H]2CCCN(c3cc(-c4ccc(C(N)=O)nc4)n4ncnc(N)c34)C2)sc2ccccc12` [Example 664, (R)-5-(4-amino-5-(3-(3-(2-(dimethylamino)ethoxy)benzo[b]thiophene-2-carboxamido)piperidin-1-yl)pyrrolo[2,1-f][1,2,4]triazin-7-yl)picolinamide], the IC50 stood at 13 nM.

As for `Nc1ncnn2c(C3=CCN(C(=O)C4(F)CC4)C3)cc(N3CCC[C@@H](NC(=O)c4sc(Cl)cc4OCCN4CCOCC4)C3)c12` [Example 263, (R)-N-(1-(4-amino-7-(1-(1-fluorocyclopropane-1-carbonyl)-2,5-dihydro-1H-pyrrol-3-yl)pyrrolo [2,1-f][1,2,4]triazin-5-yl)piperidin-3-yl)-5-chloro-3-(2-morpholinoethoxy)thiopbene-2-carboxamide], the IC50 came to 12 nM.

These data come from patent US20260250290A1 (BRISTOL-MYERS SQUIBB COMPANY, priority 2023, published 2026).
